How the values were obtained:
Assay in all cases: biochemical
[1] = biological target: CYP2D6 (Homo sapiens, UniProt P10635); conditions: for IC50: IC50 (μM) of honokiol, Bufuralol 1'-hydroxylation
Description: (§1) The inhibitory potential (IC50 values) of honokiol on CYP activities was evaluated in pooled human liver microsomes using liquid chromatography-tandem mass spectrometry (LC-MS/MS). […] Honokiol was dissolved in acetonitrile. […] After a 3 min preincubation at 37 °C, the reactions were initiated by addition of an NADP generating system and incubated for 15 min at 37 °C in a shaking water bath. The reaction was then stopped by placement of the tubes on ice and adding 100 μL of ice-cold methanol containing internal standards (^13C2, ^15N-acetaminophen for acetaminophen and N-deethylamodiaquine, and d9-1-hydroxybufuralol for 4-hydroxydiclofenac, 4-hydroxybupropion, 7-hydroxycoumarin, 4-hydroxymephenytoin, 1'-hydroxybufuralol, and 1'-hydroxymidazolam). The incubation mixtures were then centrifuged at 13,000 × g for 4 min. All incubations were performed in triplicate, and average values were used.
(§2) The reaction was initiated by the addition of the cocktail containing seven CYP probe substrates and bupropion.
(§3) The metabolites formed from the seven CYP cocktail substrates were simultaneously determined according to our previously described LC-MS/MS method with minor modification; the concentration of 4-hydroxybupropion for CYP2B6 activity was quantified separately by LC-MS/MS. A tandem mass spectrometer (TSQ Quantum Access, Thermo Scientific, San Jose, CA, USA) coupled with a Nanospace SI-2 LC system (Tokyo, Japan) was used. The column and autosampler temperatures were 50 °C and 6 °C, respectively. The mass spectrometer was equipped with an electrospray ionization (ESI) source and operated in positive ion mode. The ESI source settings for ionization of the metabolites were as follows: capillary voltage, 4200 V; vaporizer temperature, 350 °C; capillary temperature 330 °C; sheath gas pressure, 35 psi; auxiliary gas pressure, 15 psi. Quantification was performed by selected reaction monitoring (SRM) of [M+H]^+ ions and the related product ions for each metabolite. […] Analytical data were processed using Xcalibur® software (Thermo Scientific).
(§4) The incubation mixtures were centrifuged at 13,000 × g for 4 min, and the supernatants were diluted as follows: dilution of 20 μL supernatant with 180 μL of 25% methanol for CYP2C8; dilution of 50 μL supernatant with 50 μL of water for CYP2C9, CYP2C19, CYP2D6, and CYP1A2; and dilution of 20 μL supernatant with 80 μL of water for CYP2B6. Aliquots (5 μL) of the diluted supernatants were then analyzed by LC-MS/MS.
(§5) The apparent kinetic parameters for inhibitory potential (Ki values) were estimated from the fitted curves using Enzyme Kinetics Ver. 1.1 software (Systat Software Inc.).

[2] = biological target: T1, CYP2B6 (Homo sapiens, UniProt P20813); conditions: for IC50: IC50 (μM) of honokiol, Bupropion hydroxylation
T1 sequence (P20813 1-491): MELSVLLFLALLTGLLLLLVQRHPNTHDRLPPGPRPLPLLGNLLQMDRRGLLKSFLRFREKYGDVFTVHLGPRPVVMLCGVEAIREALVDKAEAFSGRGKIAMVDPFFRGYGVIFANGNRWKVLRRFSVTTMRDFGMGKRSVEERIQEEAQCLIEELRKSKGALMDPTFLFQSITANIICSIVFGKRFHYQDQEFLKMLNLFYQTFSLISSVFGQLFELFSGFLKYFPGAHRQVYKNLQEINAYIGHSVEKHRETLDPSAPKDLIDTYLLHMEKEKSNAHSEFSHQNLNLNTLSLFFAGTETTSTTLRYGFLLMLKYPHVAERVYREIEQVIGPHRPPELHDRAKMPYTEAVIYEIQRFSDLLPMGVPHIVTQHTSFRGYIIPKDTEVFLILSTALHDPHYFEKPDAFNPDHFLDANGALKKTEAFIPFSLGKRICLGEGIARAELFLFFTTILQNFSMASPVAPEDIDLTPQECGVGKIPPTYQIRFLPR
Description: as §1, §2, §3, §4, §5

[3] = biological target: CYP2C19 (Homo sapiens, UniProt P33261); conditions: for IC50: IC50 (μM) of honokiol, S-Mephenytoin 4'-hydroxylation
Description: as §1, §2, §3, §4, §5

[4] = biological target: CYP2C9 (Homo sapiens, UniProt P11712); conditions: for IC50: IC50 (μM) of honokiol, Diclofenac 4-hydroxylation
Description: as §1, §2, §3, §4, §5

[5] = biological target: T2, CYP2C8 (Homo sapiens, UniProt P10632); conditions: for IC50: IC50 (μM) of honokiol, Amodiaquine N-deethylation
T2 sequence (P10632 1-490): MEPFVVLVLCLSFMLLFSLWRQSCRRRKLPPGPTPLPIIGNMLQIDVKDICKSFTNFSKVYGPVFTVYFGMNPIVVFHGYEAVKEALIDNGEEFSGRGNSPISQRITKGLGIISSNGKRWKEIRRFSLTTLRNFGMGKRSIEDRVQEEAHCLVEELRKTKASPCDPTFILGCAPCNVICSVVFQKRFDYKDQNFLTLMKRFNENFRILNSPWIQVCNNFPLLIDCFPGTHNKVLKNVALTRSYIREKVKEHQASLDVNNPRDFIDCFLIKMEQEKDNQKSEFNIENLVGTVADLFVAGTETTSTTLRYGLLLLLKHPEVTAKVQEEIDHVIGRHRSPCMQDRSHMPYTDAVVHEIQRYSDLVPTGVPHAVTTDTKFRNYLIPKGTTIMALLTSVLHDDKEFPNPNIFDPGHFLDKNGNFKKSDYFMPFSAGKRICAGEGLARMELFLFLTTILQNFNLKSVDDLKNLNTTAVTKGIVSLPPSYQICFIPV
Description: as §1, §2, §3, §4, §5

[6] = with preincubation, 30 min preincubation with NADPH

Sequence of CYP2D6 (P10635 whole entry): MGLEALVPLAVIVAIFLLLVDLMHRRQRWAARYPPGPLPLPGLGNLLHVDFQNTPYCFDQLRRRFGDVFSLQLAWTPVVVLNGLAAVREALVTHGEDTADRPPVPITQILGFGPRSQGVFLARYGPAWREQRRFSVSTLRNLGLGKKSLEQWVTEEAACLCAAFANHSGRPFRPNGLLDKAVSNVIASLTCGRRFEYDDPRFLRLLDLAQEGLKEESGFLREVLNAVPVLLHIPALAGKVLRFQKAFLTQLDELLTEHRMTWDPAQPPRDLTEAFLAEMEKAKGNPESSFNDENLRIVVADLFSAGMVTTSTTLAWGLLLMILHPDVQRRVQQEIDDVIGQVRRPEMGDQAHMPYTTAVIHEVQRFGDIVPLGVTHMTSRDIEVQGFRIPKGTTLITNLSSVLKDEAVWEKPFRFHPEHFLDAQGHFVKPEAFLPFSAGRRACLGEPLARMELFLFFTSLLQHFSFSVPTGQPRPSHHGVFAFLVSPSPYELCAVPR
Sequence of CYP2C9 (P11712 whole entry): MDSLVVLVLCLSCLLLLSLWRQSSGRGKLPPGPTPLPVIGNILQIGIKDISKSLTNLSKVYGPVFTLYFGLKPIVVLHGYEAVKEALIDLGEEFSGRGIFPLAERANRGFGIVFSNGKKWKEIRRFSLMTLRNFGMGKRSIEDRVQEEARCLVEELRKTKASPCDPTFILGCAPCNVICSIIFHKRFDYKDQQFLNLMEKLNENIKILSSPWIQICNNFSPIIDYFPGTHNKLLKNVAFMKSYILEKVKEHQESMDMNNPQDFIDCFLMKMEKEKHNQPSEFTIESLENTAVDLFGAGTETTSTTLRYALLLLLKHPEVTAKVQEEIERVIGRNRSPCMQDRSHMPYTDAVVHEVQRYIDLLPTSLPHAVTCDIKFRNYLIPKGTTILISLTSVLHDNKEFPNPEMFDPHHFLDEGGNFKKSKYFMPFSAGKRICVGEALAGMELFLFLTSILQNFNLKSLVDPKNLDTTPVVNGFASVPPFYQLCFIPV
Sequence of CYP2C19 (P33261 whole entry): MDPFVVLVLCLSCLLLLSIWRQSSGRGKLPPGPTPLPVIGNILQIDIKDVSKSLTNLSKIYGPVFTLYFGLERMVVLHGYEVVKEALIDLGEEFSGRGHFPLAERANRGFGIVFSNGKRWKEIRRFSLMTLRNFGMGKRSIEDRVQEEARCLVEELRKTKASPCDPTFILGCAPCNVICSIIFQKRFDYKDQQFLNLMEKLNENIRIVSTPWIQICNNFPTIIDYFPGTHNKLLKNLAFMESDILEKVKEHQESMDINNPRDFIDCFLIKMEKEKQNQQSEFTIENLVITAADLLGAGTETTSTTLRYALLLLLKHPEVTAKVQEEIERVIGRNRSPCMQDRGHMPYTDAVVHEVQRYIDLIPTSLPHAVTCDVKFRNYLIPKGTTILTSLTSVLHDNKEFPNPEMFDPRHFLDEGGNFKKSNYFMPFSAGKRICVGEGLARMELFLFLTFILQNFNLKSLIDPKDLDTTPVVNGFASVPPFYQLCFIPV

Ki [1]: 12 µM
IC50 ([1]; no preincubation, 5.0 μM bufuralol, pooled HLM (H161)): 14 µM
IC50 [1, 6]: 38.1 µM
Ki [2]: 17.5 µM
IC50 ([2]; no preincubation, 50 μM bupropion, pooled HLM (H161)): 13.8 µM
IC50 [2, 6]: 20.8 µM
Ki [3]: 0.57 µM
IC50 ([3]; no preincubation, 100 μM [S]-mephenytoin, pooled HLM (H161)): 2.2 µM
IC50 [3, 6]: 2.9 µM
Ki [4]: 0.54 µM
IC50 ([4]; no preincubation, 10 μM diclofenac, pooled HLM (H161)): 4.1 µM
IC50 [4, 6]: 3.9 µM
Ki [5]: 4.9 µM
IC50 ([5]; no preincubation, 2.5 μM amodiaquine, pooled HLM (H161)): 8.9 µM
IC50 [5, 6]: 15.5 µM
SMILES: C=CCc1ccc(O)c(-c2ccc(O)c(CC=C)c2)c1 [honokiol, 2-(4-hydroxy-3-prop-2-enyl-phenyl)-4-prop-2-enyl-phenol]

From PMC6269737, “Effect of Honokiol on Cytochrome P450 and UDP-Glucuronosyltransferase Enzyme Activities in Human Liver Microsomes” (Molecules, 2013)
